According to PMC7558015, “Enhanced Intestinal Absorption and Pharmacokinetic Modulation of Berberine and Its Metabolites through the Inhibition of P-Glycoprotein and Intestinal Metabolism in Rats Using a Berberine Mixed Micelle Formulation” (Pharmaceutics, 2020):
Like-named read-outs stand apart in the source and are kept apart here. Blank lines part the entries; values can stand above or below the molecule they belong to.

Tests used:
Caco-2 cells [1] = assay: cells
Protocol: Caco-2 cells were seeded onto 96-well plates (BD-Corning, Corning, NY, USA) at a density of 1 × 10^5 cells/well, and cultured for 24 h at 37 °C in a 5% CO2 incubator. […] As a control group, berberine was treated at concentrations of 0, 1, 5, 10, 50, 100, 500, and 1000 μM. After 24 h of treatment, 20 μL of CellTiter 96 aqueous one solution from a cell proliferation assay kit (Promega, Madison, WI, USA) was added to the culture medium and incubated for 1 h. The absorbance rate of the reaction mixture was measured at 492 nm using an Infiniti M200Pro microplate reader (Tecan, Zurich, Switzerland).

[2] = Caco-2 permeability / transport of berberine and berberine formulation; format: in vitro ADME; conditions: human
Protocol: (§1) The cells were grown for 21 days and the culture medium was changed every 2 days. The integrity of the cell monolayers was evaluated prior to the transport experiments by measuring the transepithelial electrical resistance (TEER). […] To characterize the absorption transport of berberine in Caco-2 cells, the apical to basal (A to B) and basal to apical (B to A) transport of berberine was measured. […] The insert was then transferred to a well containing fresh HBSS medium every 15 min for 1 h. […] The transport medium on the apical side was replaced with 0.4 mL of fresh incubation medium every 15 min for 1 h. […] The insert was then transferred to a well containing fresh HBSS medium every 15 min for 1 h. […] The transport medium on the apical side was replaced with 0.4 mL of fresh incubation medium every 15 min for 1 h. […] The TEER values were monitored before and after the transport experiments with berberine formulation using an epithelial TEER meter (World Precision Instruments, Sarasota, FL, USA). A 100 μL aliquot of each sample was added to a 100 μL aliquot of ice-cold methanol containing 10 ng/mL of propranolol (IS). After vortexing and centrifuging the samples at 16,000× g for 10 min, the supernatant was injected directly into the LC-MS/MS system.

Caco-2 cells [3] = assay: as above; format: in vitro ADME
Protocol: as §1

[4] = Pharmacokinetic study after oral administration in rats; format: in vivo
Protocol: All the animal procedures were approved by the animal care and use committee of Kyungpook National University (Daegu, Korea; Approval No. KNU-2014-0097 and KNU-2019-0004). Male Sprague–Dawley rats weighing 250–270 g (8 weeks old) were purchased from Samtako Bio Korea (Osan, Kyunggido, Korea). When the rats arrived, they were housed with a 12 h light/dark cycle. Food and water were supplied ad libitum for 1 week prior to the animal experiment. […] The femoral vein, femoral arteries, and bile ducts of the rats were cannulated with polyethylene tubes (PE50 or PE10, Jungdo, Seoul, Korea) under anesthesia with isoflurane […] on the warming surgery table (YTK corp. Seoul, Korea), and the rats were remained on the warming table to maintain body temperature during the pharmacokinetic study. […] The prepared berberine suspension or berberine formulation was administered to rats via oral gavage. Blood samples (approximately 150 µL) were taken via the femoral artery at 0, 0.25, 0.5, 1, 1.5, 2, 4, 8, and 12 h after the oral administration, and pre-warmed saline (approximately 150 µL) was injected into the femoral vein to compensate the blood loss. The blood samples were centrifuged at 10,000× g for 1 min at 4 °C. Bile and urine samples were collected every 4 h for 12 h. After 12 h, the bile and urine samples were pooled and weighed. Aliquots (50 µL each) of plasma, urine, and bile samples were stored at −80 °C for the analysis of berberine and its metabolites. Plasma, urine, and bile samples (50 µL) were added to 150 µL of methanol containing propranolol (10 ng/mL), vortex-mixed for 15 min, and centrifuged at 10,000× g for 5 min at 4 °C. An aliquot (10 µL) of the supernatant was injected into the LC–MS/MS system. Agilent 6430 Triple Quad LC/MS system (Agilent, Wilmington, DE, USA) coupled with an Agilent 1260 series HPLC system was used for the analysis of berberine and its metabolites using the modified method of Kwon et al.. The separation was performed on a Synergy polar RP column (2.0 mm × 150 mm, 4 μm; Phenomenex, Torrance, CA, USA) using a gradient elution of the mobile phase that consisted of methanol and water with 0.1% formic acid at a flow rate of 0.2 mL/min. The composition of the mobile phase was as follows: 55% methanol for 0–2.5 min, 70% methanol for 3–5 min, 55% methanol for 5.3–12 min. The retention time was 3.01 min and 3.53 min for thalifendine-glucuronide and berberrubine-glucuronide, 6.30 min for thalifendine-sulfate, 7.79 min for berberine, 5.47 min for thalifendine, 6.38 min for berberrubine, and 2.53 min for propranolol. Mass spectra were recorded by electrospray ionization with a positive mode. Quantification was carried out using MRM at m/z 498.1 → 322.1 for thalifendine-glucuronide and berberrubine-glucuronide, m/z 402.0 → 322.1 for thalifendine-sulfate, m/z 336.1 → 320.0 for berberine, m/z 322.1 → 307.1 for thalifendine and berberrubine, and m/z 260.0 → 116.0 for propranolol. […] The thalifendine-glucuronide, berberrubine-glucuronide, and thalifendine-sulfate were relatively quantitated using berberine’s standard curve, since the authentic standard compounds were not available. The pharmacokinetic parameters were calculated by non-compartmental analysis using the WinNonlin Version 5.1 software (Pharsight, Certara, NJ, USA). Statistical analysis was performed using SPSS for Windows (version 24.0; IBM Corp., Armonk, NY, USA).

[5] = system: β-Glucuronidase and sulfatase; assay: Glucuronidase and sulfatase treatment (bile samples, stability of standards); format: in vitro ADME, Helix pomatia
Protocol: The reaction was terminated by adding 150 µL of ice-cold methanol containing propranolol (10 ng/mL), vortex-mixed for 5 min, and centrifuged at 10,000× g for 5 min at 4 °C. An aliquot (10 µL) of the supernatant was injected into the LC–MS/MS system.

[6] = system: human colon cancer HCT-8 cells; parameters: method as in PMID 23682426; conditions: cited from earlier work
[7] = parameters: method as in PMID 15531889; conditions: 32 hypercholesterolemic patients; cited from earlier work
[8] = rats; cited from earlier work
[9] = cited from earlier work
[10] = after Berberine Formulation PO 50 mg/kg, rats
[11] = after Berberine PO 50 mg/kg, rats
[12] = berberine formulation group compared with berberine group, PO 50 mg/kg, rats
[13] = male, Sprague–Dawley, rat, plasma, po, 50 mg/kg, plasma, after Berberine Formulation PO 50 mg/kg, rats
[14] = male, Sprague–Dawley, rat, plasma, po, 50 mg/kg, plasma, after Berberine Formulation PO 50 mg/kg, rats, read-out: Tmax (converted)
[15] = male, Sprague–Dawley, rat, plasma, po, 50 mg/kg, plasma, after Berberine PO 50 mg/kg, rats
[16] = male, Sprague–Dawley, rat, plasma, po, 50 mg/kg, plasma, after Berberine PO 50 mg/kg, rats, read-out: Tmax (converted)
[17] = 8 h of incubation, 37 °C, pH 5.0

IC50 (Caco-2 cells [1]; Homo sapiens, Caco-2, 24 h, read-out: IC50 (cell viability)): 933 µM
efflux ratio at 1 h, 1 μM ([2]; Caco-2, pH 7.4, 1 μM of berberine (alone or in formulation)): 14.1
efflux ratio at 1 h, 100 μM ([2]; Caco-2, pH 7.4, 100 μM of berberine (alone or in formulation)): 7.5
efflux ratio at 1 h, 10 μM ([2]; Caco-2, pH 7.4, berberine 10 μM, absence of CsA): 13.8
efflux ratio at 1 h, 10 μM ([2]; Caco-2, pH 7.4, with cyclosporine A 25 μM, berberine 10 μM, presence of CsA 25 μM): 2.2
efflux ratio (Caco-2 cells [3]; 100 μM of berberine (alone or in formulation)): 7.54
CLint (P-gp-mediated efflux clearance) (Caco-2 cells [3]; Caco-2): 1.61 µL/min
Kd (absorptive diffusion clearance) (Caco-2 cells [3]; Caco-2): 0.03 µL/min
Xb,12h (amount excreted into bile for 12 h) [4, 10]: 992 ± 563 ng
Xu,12h (amount excreted into urine for 12 h) [4, 10]: 21,273 ± 12,517 ng
Xb,12h (amount excreted into bile for 12 h) [4, 11]: 323.7 ± 155.8 ng
Xu,12h (amount excreted into urine for 12 h) [4, 11]: 47.3 ± 30.1 ng
fold increase in AUC [4, 12]: 15.6 fold
AUC [4, 13]: 537 ng·h/mL
Cmax [4, 13]: 140 ± 29.4 ng/mL
Tmax [4, 14]: 0.583 h
AUC [4, 15]: 34.5 ng·h/mL
Cmax [4, 15]: 67 ± 66.9 ng/mL
Tmax [4, 16]: 0.5 h
stability after glucuronidase and sulfatase treatment [5, 17]: stable
Molecule: COc1ccc2cc3[n+](cc2c1OC)CCc1cc2c(cc1-3)OCO2 [Berberine]
berberine concentration without (significant) cytotoxicity (Caco-2 cells [1]; human, 24 h): up to 100 μM
Vmax of B to A transport (Caco-2 cells [3]; Caco-2, 1–100 μM, Michaelis–Menten): 10.5 pmol/min
Km (Caco-2 cells [3]; Caco-2, 1–100 μM, Michaelis–Menten, read-out: Km of B to A transport): 6.5 µM
IC50 [6]: 470 µM
decrease of low-density lipoprotein (LDL) cholesterol [7]: 25%
decrease of triglycerides [7]: 35%
lowering of total cholesterol [7]: 29%
AUC post intraduodenal administration as share of AUC post intraportal vein administration [8]: ~0.5%
AUC post intraportal vein administration as share of intravenous AUC [8]: 72%
bioavailability [8]: 0.68%
oral dose disappeared during gastrointestinal first-pass elimination [8]: 99.5%
AUCliver ([9]; liver): 728.6 ng·h/mL
share of oral dose entering the portal vein ([9]; oral): 0.5%
share of oral dose metabolized in the enterocytes ([9]; oral): About 43.5%
share of oral dose not absorbed (P-gp-mediated efflux and self-aggregation) ([9]; oral): About 56%
AUCplasma ([9]; plasma): 86.4 ng·h/mL

Metabolic ratio (metabolite AUC to berberine AUC) [4, 10]: 0.00%
Xb,12h (amount excreted into bile for 12 h) [4, 10]: 0 ng
Xu,12h (amount excreted into urine for 12 h) [4, 10]: 67.78 ± 11.89 ng
Metabolic ratio (metabolite AUC to berberine AUC) [4, 11]: 0.04%
Xb,12h (amount excreted into bile for 12 h) [4, 11]: 0 ng
Xu,12h (amount excreted into urine for 12 h) [4, 11]: 22.80 ± 15.84 ng
AUC [4, 13]: 1.73 ng·h/mL
Cmax [4, 13]: 0.31 ± 0.18 ng/mL
Tmax [4, 14]: 0.917 h
AUC [4, 15]: 1.34 ng·h/mL
Cmax [4, 15]: 0.16 ± 0.03 ng/mL
Tmax [4, 16]: 4.17 h
degraded by glucuronidase and sulfatase treatment [5, 17]: more than 94%
Molecule: COc1ccc2cc3[n+](cc2c1O)CCc1cc2c(cc1-3)OCO2 [Berberrubine]

Xb,12h (amount excreted into bile for 12 h) [4, 10]: 1871 ± 1092 ng
Xu,12h (amount excreted into urine for 12 h) [4, 10]: 7209 ± 2632 ng
Metabolic ratio (metabolite AUC to berberine AUC) [4, 11]: 0.09%
Xb,12h (amount excreted into bile for 12 h) [4, 11]: 281.5 ± 250.2 ng
Xu,12h (amount excreted into urine for 12 h) [4, 11]: 199.3 ± 76.1 ng
fold increase in AUC [4, 12]: 9.3 fold
AUC [4, 13]: 28.1 ng·h/mL
Cmax [4, 13]: 5.45 ± 3.12 ng/mL
Tmax [4, 14]: 10.7 h
AUC [4, 15]: 3.04 ng·h/mL
Cmax [4, 15]: 0.64 ± 0.19 ng/mL
Tmax [4, 16]: 7 h
stability after glucuronidase and sulfatase treatment [5, 17]: stable
increase of peak after glucuronidase and sulfatase treatment ([5]; rat bile collected 12 h after oral berberine): 10.6 fold
Molecule: COc1c(O)ccc2cc3[n+](cc12)CCc1cc2c(cc1-3)OCO2 [Thalifendine]

Tmax ([4]; rat, in vivo, po, 50 mg/kg): 10.67 ± 2.31 h
fold increase in AUC ([4]; rat, in vivo, po, 50 mg/kg): 5.8 fold
Molecule: thalifendine/berberrubine-sulfate
